Where a name gives a salt, the structure may show the parent alone.
Test system: inflammatory pain
Experiment: Randall-Selitto test in rats (carrageenan-induced acute inflammation, mechanical nociceptive threshold)
Assay type: in vivo
Conditions: rat; for time point of peak effect: substance applied alone, A i.v., paracetamol i.p.
Protocol: The weight ratios of the components (a) and (b) that will lead to a supra-additive effect (synergistic effect) of the inventive pharmaceutical composition may be determined via the test of Randall and Selitto as described in Arch. Int. Pharmacodyn., 1957, 111: 409 to 419, which is a model for inflammatory pain. The respective part of the literature is hereby incorporated by reference and forms part of the present disclosure.
Acute inflammation is induced by an intraplantar injection of 0.1 ml of a carrageenan solution (0.5% in distilled water) into one hind paw. The mechanical nociceptive threshold is measured 4 hours after carrageenan injection using an Algesiometer (Ugo Basile, Italy). The device generates a mechanical force with a linear increase over time. The force is applied to the dorsal surface of the inflamed rat hind paw via a cone-shaped stylus with a rounded tip (2 mm tip diameter). The nociceptive threshold is defined as the force (in grams) at which the rat vocalises (cut-off force 250 g). […] The antinociceptive and antihyperalgesic activity of the tested substance is expressed as percentages of the maximal possible effect (% MPE). The group size is n=10.
The interactions studies presented herein were performed using equieffective doses of the two components, calculated from the ratio of the respective ED50 values of the components if administered alone.
Thus, the time point of ED50 calculation of the combination corresponds to the timepoint of the peak effect of the respective compound.

COc1cccc([C@@]2(O)C[C@H](O)CC[C@@H]2CN(C)C)c1 (racemic) [A, (1RS,3RS,6RS)-6-dimethylaminomethyl-1-(3-methoxy-phenyl)-cyclohexane-1,3-diol hydrochloride]
ED50 (iv, 0.25 h, i.v., 15 min p. appl. (peak effect), % MPE, n=10, read-out: ED50 of A applied alone): 15.8 mg/kg
time point of peak effect: 15 min

CC(=O)Nc1ccc(O)cc1 [Paracetamol]
time point of peak effect: 120 min
